According to patent publication EP0745599A2, “1-(3-Heterocyclylphenyl)-s-triazine-2,4,6-oxo or thiotrione herbicidal agents” (American Cyanamid Company, priority 1995, dated 1996):

What was measured:
Format in all cases: in vivo
Conditions in all cases: rated four to five weeks after treatment
ZEA MAYS L. = experiment: Preemergence herbicidal evaluation, ZEAMX (Corn, Field); parameters: key to ZEAMX: visual rating scale 0-9 vs control
Excerpt: (§1) Results of herbicide evaluation are expressed on a rating scale (0-9). The scale is based upon a visual observation of plant stand, vigor, malformation, size, chlorosis and overall plant appearance as compared with a control.
(§2) The preemergence herbicidal activity of the test compounds of the present invention is exemplified by the following tests in which the seeds of a variety of monocotyledonous and dicotyledonous plants are separately mixed with potting soil and planted on top of approximately one inch of soil in separate pint cups. After planting, the cups are sprayed with the selected aqueous acetone solution containing test compound in sufficient quantity to provide the equivalent of about 0.125 to 0.50 kg per hectare of test compound per cup. The treated cups are then placed on greenhouse benches, watered and cared for in accordance with conventional greenhouse procedures. From four to five weeks after treatment, the tests are terminated and each cup is examined and rated according to the rating system provided in Example 42.

[1] = tested on: AMBROSIA ARTEMISIIFOLIA, L.; experiment: Preemergence herbicidal evaluation, AMBEL (Ragweed, Common); parameters: key to AMBEL: visual rating scale 0-9 vs control
Excerpt: as §1, §2

[2] = tested on: ECHINOCHLOA CRUS-GALLI, (L) BEAU; experiment: Preemergence herbicidal evaluation, ECHCG (Barnyardgrass); parameters: key to ECHCG: visual rating scale 0-9 vs control
Excerpt: as §1, §2

[3] = tested on: GLYCINE MAX(L)MERR. CV. WILLIAMS; experiment: Preemergence herbicidal evaluation, GLXMAW (Soybean, Williams); parameters: key to GLXMAW: visual rating scale 0-9 vs control
Excerpt: as §1, §2

[4] = tested on: ABUTILON THEOPHRASTI, MEDIC.; experiment: Preemergence herbicidal evaluation, ABUTH (Velvetleaf); parameters: key to ABUTH: visual rating scale 0-9 vs control
Excerpt: as §1, §2

[5] = tested on: SETARIA VIRIDIS, (L) BEAU; experiment: Preemergence herbicidal evaluation, SETVI (Foxtail, Green); parameters: key to SETVI: visual rating scale 0-9 vs control
Excerpt: as §1, §2

[6] = tested on: TRITICUM AESTIVUM, CV. APOLLO; experiment: Postemergence herbicidal evaluation, TRZAWO (Wheat, Winter, CV. APOLLO)
Protocol: (§3) In the tests, seedling plants are grown in jiffy flats for about two weeks. The test compounds are dispersed in 50/50 acetone/water mixtures containing 0.5% TWEEN®20, a polyoxyethylene sorbitan monolaurate surfactant of Atlas Chemical Industries, in sufficient quantities to provide the equivalent of about 0.125 kg to 0.500 kg per hectare of active compound when applied to the plants through a spray nozzle operating at 40 psi for a predetermined time. After spraying, the plants are placed on greenhouse benches and are cared for in the usual manner, commensurate with conventional greenhouse practices. From four to five weeks after treatment, the seedling plants are examined and rated according to the rating system set forth below. Where more than one test is involved for a given compound, the data are averaged.
as §1

GALIUM APARINE = experiment: Preemergence herbicidal evaluation, GALAP (Galium); parameters: key to GALAP: visual rating scale 0-9 vs control
Excerpt: as §1, §2

[7] = tested on: TRITICUM AESTIVUM, CV. APOLLO; experiment: Preemergence herbicidal evaluation, TRZAWO (Wheat, Winter, CV. APOLLO); parameters: key to TRZAWO: visual rating scale 0-9 vs control
Excerpt: as §1, §2

[8] = tested on: ECHINOCHLOA CRUS-GALLI, (L) BEAU; experiment: Postemergence herbicidal evaluation, ECHCG (Barnyardgrass)
Protocol: as §3, §1

CHENOPODIUM ALBUM, L. = experiment: Preemergence herbicidal evaluation, CHEAL (Lambsquarters, Common); parameters: key to CHEAL: visual rating scale 0-9 vs control
Excerpt: as §1, §2

[9] = tested on: SETARIA VIRIDIS, (L) BEAU; experiment: Postemergence herbicidal evaluation, SETVI (Foxtail, Green)
Protocol: as §3, §1

IPOMOEA SPP. = experiment: Preemergence herbicidal evaluation, IPOSS (Morningglory Spp.); parameters: key to IPOSS: visual rating scale 0-9 vs control
Excerpt: as §1, §2

CASSIA OBTUSIFOLIA, L. [10] = experiment: Preemergence herbicidal evaluation, CASOB (Sicklepod); parameters: key to CASOB: visual rating scale 0-9 vs control
Excerpt: as §1, §2

[11] = tested on: ORYZA SATIVA, L. TEBONNET; experiment: Preemergence herbicidal evaluation, ORYSAT (Rice, Tebonnet); parameters: key to ORYSAT: visual rating scale 0-9 vs control
Excerpt: as §1, §2

CASSIA OBTUSIFOLIA, L. [12] = experiment: Postemergence herbicidal evaluation, CASOB (Sicklepod)
Protocol: as §3, §1

[13] = tested on: ORYZA SATIVA, L. TEBONNET; experiment: Postemergence herbicidal evaluation, ORYSAT (Rice, Tebonnet)
Protocol: as §3, §1

CC(C)OC(=O)Cn1c(=O)n(C)c(=O)n(-c2cc(N3C(=O)C4C[S+]([O-])CCN4C3=O)c(F)cc2Cl)c1=O (stereo not drawn) [Compound 14, Isopropyl 3-[2-chloro-4-fluoro-5-(tetra-hydro-1,3,7-trioxo-1H-imidazo[5,1-c][1,4]-thiazin-2(3H)-yl)phenyl]tetrahydro-5-methyl-2,4,6-trioxo-s-triazine-1(2H)-acetate]
6.0: CHEAL (CHENOPODIUM ALBUM, L.; Rate 0.250 kg/ha)
2.0: AMBEL ([1]; Rate 0.250 kg/ha) | Herbicide rating (0-9) TRZAWO ([6]; 0.125 kg/ha) | Herbicide rating (0-9) TRZAWO ([6]; 0.250 kg/ha) | Herbicide rating (0-9) TRZAWO ([6]; 0.500 kg/ha) | TRZAWO ([7]; Rate 0.500 kg/ha) | CASOB (CASSIA OBTUSIFOLIA, L. [10]; Rate 0.125 kg/ha) | CASOB (CASSIA OBTUSIFOLIA, L. [10]; Rate 0.250 kg/ha) | ORYSAT ([11]; Rate 0.250 kg/ha)
9.0: GALAP (GALIUM APARINE; Rate 0.500 kg/ha) | CHEAL (CHENOPODIUM ALBUM, L.; Rate 0.500 kg/ha)
3.0: AMBEL ([1]; Rate 0.500 kg/ha) | IPOSS (IPOMOEA SPP.; Rate 0.500 kg/ha)
4.0: ABUTH ([4]; Rate 0.500 kg/ha) | CASOB (CASSIA OBTUSIFOLIA, L. [10]; Rate 0.500 kg/ha) | ORYSAT ([11]; Rate 0.500 kg/ha)
0.0: ZEAMX (ZEA MAYS L.; Rate 0.125 kg/ha) | ZEAMX (ZEA MAYS L.; Rate 0.250 kg/ha) | AMBEL ([1]; Rate 0.125 kg/ha) | ECHCG ([2]; Rate 0.125 kg/ha) | ECHCG ([2]; Rate 0.250 kg/ha) | ECHCG ([2]; Rate 0.500 kg/ha) | GLXMAW ([3]; Rate 0.125 kg/ha) | GLXMAW ([3]; Rate 0.250 kg/ha) | GLXMAW ([3]; Rate 0.500 kg/ha) | ABUTH ([4]; Rate 0.125 kg/ha) | ABUTH ([4]; Rate 0.250 kg/ha) | SETVI ([5]; Rate 0.125 kg/ha) | SETVI ([5]; Rate 0.250 kg/ha) | TRZAWO ([7]; Rate 0.125 kg/ha) | Herbicide rating (0-9) ECHCG ([8]; 0.125 kg/ha) | Herbicide rating (0-9) ECHCG ([8]; 0.250 kg/ha) | Herbicide rating (0-9) ECHCG ([8]; 0.500 kg/ha) | IPOSS (IPOMOEA SPP.; Rate 0.125 kg/ha) | ORYSAT ([11]; Rate 0.125 kg/ha)
5.0: Herbicide rating (0-9) CASOB (CASSIA OBTUSIFOLIA, L. [12]; 0.125 kg/ha) | Herbicide rating (0-9) CASOB (CASSIA OBTUSIFOLIA, L. [12]; 0.250 kg/ha) | Herbicide rating (0-9) CASOB (CASSIA OBTUSIFOLIA, L. [12]; 0.500 kg/ha)
7.0: GALAP (GALIUM APARINE; Rate 0.125 kg/ha) | GALAP (GALIUM APARINE; Rate 0.250 kg/ha) | CHEAL (CHENOPODIUM ALBUM, L.; Rate 0.125 kg/ha)
1.0: ZEAMX (ZEA MAYS L.; Rate 0.500 kg/ha) | SETVI ([5]; Rate 0.500 kg/ha) | TRZAWO ([7]; Rate 0.250 kg/ha) | Herbicide rating (0-9) SETVI ([9]; 0.125 kg/ha) | Herbicide rating (0-9) SETVI ([9]; 0.250 kg/ha) | Herbicide rating (0-9) SETVI ([9]; 0.500 kg/ha) | IPOSS (IPOMOEA SPP.; Rate 0.250 kg/ha)

C#CCn1c(=O)n(CC=C)c(=O)n(-c2cc(N3C(=O)C4=C(CCCC4)C3=O)c(F)cc2Cl)c1=O [Compound 20, N-{5-[3-Allylhexahydro-2,4,6-trioxo-5-(2-propynyl)-s-triazin-1-yl]-4-chloro-2-fluoro-phenyl}-1-cyclohexene-1,2-dicarboximide]
2.0: Herbicide rating (0-9) ORYSAT ([13]; 0.125 kg/ha) | Herbicide rating (0-9) ORYSAT ([13]; 0.250 kg/ha) | Herbicide rating (0-9) ORYSAT ([13]; 0.500 kg/ha)
0.0: Herbicide rating (0-9) ECHCG ([8]; 0.125 kg/ha) | Herbicide rating (0-9) ECHCG ([8]; 0.250 kg/ha) | Herbicide rating (0-9) ECHCG ([8]; 0.500 kg/ha) | Herbicide rating (0-9) SETVI ([9]; 0.125 kg/ha) | Herbicide rating (0-9) SETVI ([9]; 0.250 kg/ha) | Herbicide rating (0-9) SETVI ([9]; 0.500 kg/ha)
